The values below come from US10314843B2, “Combinations for the treatment of neoplasms using quiescent cell targeting and inhibitors of mitosis” (Felicitex Therapeutics, Inc., priority 2016, dated 2019).

One data set relates to quiescent cancer cells. Conditions: in vitro; reported by Ewton et al. 2011; cited from earlier work.
The test system of data set [1] is SW620 cells. The experiment in a line: FACS cell cycle distribution by DNA content (propidium iodide), SW620 cells in FBS- media. Format: cell-based. Conditions: 24 hours in FBS- media, AZ191 2.5, 5, 10 μM, Compound I-7 1.25, 2.5, 5 μM. On the procedure:
Cell cultures were seeded into 6-well plates at 3×10^5-6×10^5 cells/well; the plated number of cells depended on cell size and rate of proliferation, aiming for approximately 50% confluency. After seeding, the cells were allowed to attach for 24 hours while incubated at 37° C. in a humidified 5% CO2 atmosphere, and then treated with compounds for desired amount of time (usually 24 hours) incubating under same conditions. Then the cells were harvested by trypsinization, pooled with the floating cells, washed in PBS, and fixed in 70% ice-cold ethanol overnight. […] […] The complete protocol and composition of buffers are described in the literature (Darzynkiewicz Z, Juan G, and Srour E F (2004) Differential Staining of DNA and RNA (2004). Current Protocols in Cytometry, Chapter 7:Unit 7.3).
The SW620 cells were cultured and treated as described in Example 1. For propidium iodide (PI) staining, manufacturer's protocol supplied with the Guava Cell Cycle Reagent for Flow Cytometry (EMD Millipore) was followed. The measurements were performed with Guava PCA-96 flow cytometer (EMD Millipore) using the green laser for excitation at 535 nm and monitoring emission at 617 nm.
The SW620 cells were cultured, treated, and analyzed as described in Examples 1. […]

Data set [2] concerns SW620 cells. The experiment in a line: FACS cell cycle distribution (Acridine Orange), SW620 cells. Format: cell-based. Conditions: combination of Compound I-7 (4 μM) with paclitaxel (2 nM), FBS+ media, 24 hours. An excerpt: (§1) The following cell lines were obtained from ATCC and cultured according to the ATCC recommendations: DMS273—small cell lung cancer cell line; H1975—non-small cell lung cancer cell line harboring L858R and T790M mutations in EGFR TK; A549—a non-small cell lung cancer cell line with wild type EGFR; LNCap—prostate cancer cell line; SW620—colon cancer cell line; MiaPaCa2—pancreatic cancer cell line; PANC1—pancreatic cancer cell line; OVCAR3—ovarian cancer cell line; SK-OV-3—ovarian cancer cell line.
(§2) Cell cultures were seeded into 6-well plates at 3×10^5-6×10^5 cells/well; the plated number of cells depended on cell size and rate of proliferation, aiming for approximately 50% confluency. After seeding, the cells were allowed to attach for 24 hours while incubated at 37° C. in a humidified 5% CO2 atmosphere, and then treated with compounds for desired amount of time (usually 24 hours) incubating under same conditions. Then the cells were harvested by trypsinization, pooled with the floating cells, washed in PBS, and fixed in 70% ice-cold ethanol overnight. For Acridine Orange (AO) staining, fixed cells were washed once with ice-cold PBS, re-suspended in 100 μL PBS, followed by addition of 200 μL of permeabilizing solution and 600 μL AO staining solution. The measurements were performed with Guava easyCyte HT flow cytometer (EMD Millipore) using the blue laser for excitation at 488 nm, monitoring emission of the AO-DNA complex at 526 nm and AO-RNA complex at 650 nm. The complete protocol and composition of buffers are described in the literature (Darzynkiewicz Z, Juan G, and Srour E F (2004) Differential Staining of DNA and RNA (2004). Current Protocols in Cytometry, Chapter 7:Unit 7.3).

Another data set has as its system DMS273 cells. The experiment in a line: FACS cell cycle distribution (Acridine Orange), DMS273 cells. It is filed as cell-based. Conditions: FBS+ media, 24 hours.
Source text: as §1, §2

Setting [3] is: combination of Compound I-7 (4 μM) with vincristine (1.1 nM).
Where [4] appears, read: combination of Compound I-7 (4 μM) with vinorelbine (8.1 nM).
The mark [5] stands for this setting: combination of Compound I-7 with paclitaxel.

Regarding `COc1ncc2cc(C(=O)Nc3cc(C(=O)NCc4cccc(Cl)c4)ccc3Cl)c(=O)[nH]c2n1` [TC-S 7004], the “effectiveness against quiescent cancer cells” value with quiescent cancer cells was “effective against quiescent cancer cells in vitro”.

In the case of `CCOC(=N)c1nc2ccc3ncnc(Nc4cc(F)c(F)cc4Cl)c3c2s1` [Compound I-7], the “fraction of cells in quiescent state (G0), based on fraction of cells in G0+G1 phase” value in the data set with SW620 cells [1] is reported as “significant decrease in fraction of cells in quiescent state (G0)”. Besides, the “cytotoxicity (fraction of apoptotic cells, sub-G0 population)” value with SW620 cells [2] is given as “significantly higher than that of paclitaxel alone”; in the data set on DMS273 cells (setting [3]) it was “significantly higher than that of vincristine alone”; in the data set with DMS273 cells (setting [4]) it was “significantly higher than that of vinorelbine alone”; with DMS273 cells (setting [5]) it was “significantly higher than that of paclitaxel alone”. In addition, the “fraction of cells in G0” value in the data set with SW620 cells [2], in the data set with DMS273 cells (setting [3]), in the data set with DMS273 cells (setting [4]) and in the data set on DMS273 cells (setting [5]) was “significant reduction of the fraction of cells in G0” in each case.

Turning to `COc1cc(N2CCN(C)CC2)ccc1Nc1nccc(-c2cn(C)c3cnccc23)n1` [AZ191], the “fraction of cells in quiescent state (G0), based on fraction of cells in G0+G1 phase” value in the data set with SW620 cells [1] is given as “no decrease in fraction of cells in quiescent state (G0)”.
